pEC50: −log10 of the molar value. Calls of active or inactive are those of the source.
Key:
[1] = Hepatotoxicity in golden hamster infected with Leishmania (Viannia) braziliensis HMOM/COL/88/UA301-EGFP assessed as external stress condition induced changes at 200 ug administered intralesionally twice per week for 4 weeks measured 90 days post last dose by histopathological analysis; assay type: toxicity, Mesocricetus auratus; details: in vivo, other, 2160 h
[2] = Toxicity in golden hamster infected with Leishmania (Viannia) braziliensis HMOM/COL/88/UA301-EGFP assessed as effect on serum BUN level at 200 ug administered intralesionally twice per week for 4 weeks measured day 8 post last treatment; design: species or system Mesocricetus auratus; details: in vivo, other, 672 h
[3] = Renal toxicity in golden hamster infected with Leishmania (Viannia) braziliensis HMOM/COL/88/UA301-EGFP assessed as fibrosis at 200 ug administered intralesionally twice per week for 4 weeks measured 90 days post last dose by histopathological analysis; design: species or system Mesocricetus auratus; details: in vivo, other, 2160 h
[4] = Hepatotoxicity in golden hamster infected with Leishmania (Viannia) braziliensis HMOM/COL/88/UA301-EGFP assessed as congestion at 200 ug administered intralesionally twice per week for 4 weeks measured 90 days post last dose by histopathological analysis; assay type: toxicity, Mesocricetus auratus; details: in vivo, other, 2160 h
[5] = Toxicity in golden hamster infected with Leishmania (Viannia) braziliensis HMOM/COL/88/UA301-EGFP assessed as effect on serum creatinine level at 200 ug administered intralesionally twice per week for 4 weeks measured day 8 post last treatment; design: species or system Mesocricetus auratus; details: in vivo, other, 672 h
[6] = Renal toxicity in golden hamster infected with Leishmania (Viannia) braziliensis HMOM/COL/88/UA301-EGFP assessed as infiltration of lymphocytes at 200 ug administered intralesionally twice per week for 4 weeks measured 90 days post last dose by histopathological analysis; design: species or system Mesocricetus auratus; details: in vivo, other, 2160 h
[7] = Toxicity in golden hamster infected with Leishmania (Viannia) braziliensis HMOM/COL/88/UA301-EGFP assessed as change in body weight at 200 ug administered intralesionally twice per week for 4 weeks measured up to 90 days post last dose; design: species or system Mesocricetus auratus; details: in vivo, other
[8] = Hepatotoxicity in golden hamster infected with Leishmania (Viannia) braziliensis HMOM/COL/88/UA301-EGFP assessed as hyperplasia at 200 ug administered intralesionally twice per week for 4 weeks measured 90 days post last dose by histopathological analysis; assay type: toxicity, Mesocricetus auratus; details: in vivo, other, 2160 h
[9] = Hepatotoxicity in golden hamster infected with Leishmania (Viannia) braziliensis HMOM/COL/88/UA301-EGFP assessed as vacuolar degeneration at 200 ug administered intralesionally twice per week for 4 weeks measured 90 days post last dose by histopathological analysis; assay type: toxicity, Mesocricetus auratus; details: in vivo, other, 2160 h
[10] = Hepatotoxicity in golden hamster infected with Leishmania (Viannia) braziliensis HMOM/COL/88/UA301-EGFP assessed as infiltration of macrophages at 200 ug administered intralesionally twice per week for 4 weeks measured 90 days post last dose by histopathological analysis; assay type: toxicity, Mesocricetus auratus; details: in vivo, other, 2160 h
[11] = Hepatotoxicity in golden hamster infected with Leishmania (Viannia) braziliensis HMOM/COL/88/UA301-EGFP assessed as hemosiderin pigmentation at 200 ug administered intralesionally twice per week for 4 weeks measured 90 days post last dose by histopathological analysis; assay type: toxicity, Mesocricetus auratus; details: in vivo, other, 2160 h
[12] = Renal toxicity in golden hamster infected with Leishmania (Viannia) braziliensis HMOM/COL/88/UA301-EGFP assessed as vacuolar degeneration at 200 ug administered intralesionally twice per week for 4 weeks measured 90 days post last dose by histopathological analysis; design: species or system Mesocricetus auratus; details: in vivo, other, 2160 h
[13] = Renal toxicity in golden hamster infected with Leishmania (Viannia) braziliensis HMOM/COL/88/UA301-EGFP assessed as edema at 200 ug administered intralesionally twice per week for 4 weeks measured 90 days post last dose by histopathological analysis; design: species or system Mesocricetus auratus; details: in vivo, other, 2160 h
[14] = Renal toxicity in golden hamster infected with Leishmania (Viannia) braziliensis HMOM/COL/88/UA301-EGFP assessed as turbid degeneration at 200 ug administered intralesionally twice per week for 4 weeks measured 90 days post last dose by histopathological analysis; design: species or system Mesocricetus auratus; details: in vivo, other, 2160 h
[15] = Hepatotoxicity in golden hamster infected with Leishmania (Viannia) braziliensis HMOM/COL/88/UA301-EGFP assessed as infiltration of lymphocytes at 200 ug administered intralesionally twice per week for 4 weeks measured 90 days post last dose by histopathological analysis; assay type: toxicity, Mesocricetus auratus; details: in vivo, other, 2160 h
[16] = Toxicity in golden hamster infected with Leishmania (Viannia) braziliensis HMOM/COL/88/UA301-EGFP assessed as effect on serum alanine aminotransferase level at 200 ug administered intralesionally twice per week for 4 weeks measured day 8 post last treatment; design: species or system Mesocricetus auratus; details: in vivo, other, 672 h
[17] = Renal toxicity in golden hamster infected with Leishmania (Viannia) braziliensis HMOM/COL/88/UA301-EGFP assessed as infiltration of plasma cells at 200 ug administered intralesionally twice per week for 4 weeks measured 90 days post last dose by histopathological analysis; design: species or system Mesocricetus auratus; details: in vivo, other, 2160 h
[18] = system: Leishmania braziliensis; assay: Antileishmanial activity against Leishmania (Viannia) braziliensis HMOM/COL/88/UA301-EGFP intracellular amastigotes infected in human U937 cells after 72 hrs by flow cytometric analysis; assay type: functional, organism-based; details: HMOM/COL/88/UA301, U-937, 72 h
[19] = system: Syrian golden hamster; assay: Antiinflammatory activity in golden hamster infected with Leishmania (Viannia) braziliensis HMOM/COL/88/UA301-EGFP assessed as re-epithelialization in skin at 2.6% administered topically as cream formulation for 20 days and measured 3 months post last treatment by histopathological analysis; assay type: functional, organism-based; details: Mesocricetus auratus
[20] = Hepatotoxicity in golden hamster infected with Leishmania (Viannia) braziliensis HMOM/COL/88/UA301-EGFP assessed as vacuolar degeneration at 2.6% administered topically as cream formulation for 20 days measured 90 days post last dose by histopathological analysis; assay type: toxicity, Mesocricetus auratus; details: in vivo, topical_or_ocular, 2160 h
[21] = system: Syrian golden hamster; assay: Antiinflammatory activity in golden hamster infected with Leishmania (Viannia) braziliensis HMOM/COL/88/UA301-EGFP assessed as migration of lymphocytes in skin at 2.6% administered topically as cream formulation for 20 days and measured 3 months post last treatment by histopathological analysis; assay type: functional, organism-based; details: Mesocricetus auratus
[22] = Hepatotoxicity in golden hamster infected with Leishmania (Viannia) braziliensis HMOM/COL/88/UA301-EGFP assessed as hemosiderin pigmentation at 2.6% administered topically as cream formulation for 20 days measured 90 days post last dose by histopathological analysis; assay type: toxicity, Mesocricetus auratus; details: in vivo, topical_or_ocular, 2160 h
[23] = system: Syrian golden hamster; assay: Antiinflammatory activity in golden hamster infected with Leishmania (Viannia) braziliensis HMOM/COL/88/UA301-EGFP assessed as migration of plasmocytes in skin at 2.6% administered topically as cream formulation for 20 days and measured 3 months post last treatment by histopathological analysis; assay type: functional, organism-based; details: Mesocricetus auratus
[24] = Renal toxicity in golden hamster infected with Leishmania (Viannia) braziliensis HMOM/COL/88/UA301-EGFP assessed as vacuolar degeneration at 2.6% administered topically as cream formulation for 20 days measured 90 days post last dose by histopathological analysis; design: species or system Mesocricetus auratus; details: in vivo, topical_or_ocular, 2160 h
[25] = Toxicity in golden hamster infected with Leishmania (Viannia) braziliensis HMOM/COL/88/UA301-EGFP assessed as effect on serum BUN level at 2.6% administered topically as cream formulation for 20 days and measured day 8 post last treatment; design: species or system Mesocricetus auratus; details: in vivo, topical_or_ocular, 480 h
[26] = Toxicity in golden hamster infected with Leishmania (Viannia) braziliensis HMOM/COL/88/UA301-EGFP assessed as change in body weight at 2.6% administered topically as cream formulation for 20 days measured up to 90 days post last dose; design: species or system Mesocricetus auratus; details: in vivo, topical_or_ocular
[27] = Cytotoxicity against human U937 cells after 72 hrs by MTT assay; assay type: cell-based, U-937; details: read-out: LC50
[28] = system: Leishmania braziliensis; assay: Antileishmanial activity against Leishmania (Viannia) braziliensis HMOM/COL/88/UA301-EGFP infected in golden hamster assessed as cure rate at 2.6% administered topically as cream formulation for 20 days measured 3 months post last dose relative to control; assay type: functional
[29] = Hepatotoxicity in golden hamster infected with Leishmania (Viannia) braziliensis HMOM/COL/88/UA301-EGFP assessed as infiltration of lymphocytes at 2.6% administered topically as cream formulation for 20 days measured 90 days post last dose by histopathological analysis; assay type: toxicity, Mesocricetus auratus; details: in vivo, topical_or_ocular, 2160 h
[30] = Hepatotoxicity in golden hamster infected with Leishmania (Viannia) braziliensis HMOM/COL/88/UA301-EGFP assessed as infiltration of macrophages at 2.6% administered topically as cream formulation for 20 days measured 90 days post last dose by histopathological analysis; assay type: toxicity, Mesocricetus auratus; details: in vivo, topical_or_ocular, 2160 h
[31] = Hepatotoxicity in golden hamster infected with Leishmania (Viannia) braziliensis HMOM/COL/88/UA301-EGFP assessed as congestion at 2.6% administered topically as cream formulation for 20 days measured 90 days post last dose by histopathological analysis; assay type: toxicity, Mesocricetus auratus; details: in vivo, topical_or_ocular, 2160 h
[32] = Toxicity in golden hamster infected with Leishmania (Viannia) braziliensis HMOM/COL/88/UA301-EGFP assessed as effect on serum creatinine level at 2.6% administered topically as cream formulation for 20 days and measured day 8 post last treatment; design: species or system Mesocricetus auratus; details: in vivo, topical_or_ocular, 480 h
[33] = Selectivity index, ratio of LC50 for human U937 cells to EC50 for Leishmania (Viannia) braziliensis HMOM/COL/88/UA301-EGFP intracellular amastigotes infected in human U937 cells; assay type: toxicity, cell-based; details: read-out: Selectivity Index
[34] = system: Leishmania braziliensis; assay: Antileishmanial activity against Leishmania (Viannia) braziliensis HMOM/COL/88/UA301-EGFP infected in golden hamster assessed as clinical improvement at 2.6% administered topically as cream formulation for 20 days measured 3 months post last dose relative to control; assay type: functional
[35] = system: Leishmania braziliensis; assay: Antileishmanial activity against Leishmania (Viannia) braziliensis HMOM/COL/88/UA301-EGFP infected in golden hamster assessed as relapse at 2.6% administered topically as cream formulation for 20 days measured 3 months post last dose relative to control; assay type: functional
[36] = system: Leishmania braziliensis; assay: Antileishmanial activity against Leishmania (Viannia) braziliensis HMOM/COL/88/UA301-EGFP infected in golden hamster assessed as clinical failure at 2.6% administered topically as cream formulation for 20 days measured 3 months post last dose relative to control; assay type: functional
[37] = system: Syrian golden hamster; assay: Antiinflammatory activity in golden hamster infected with Leishmania (Viannia) braziliensis HMOM/COL/88/UA301-EGFP assessed as migration of macrophages in skin at 2.6% administered topically as cream formulation for 20 days and measured 3 months post last treatment by histopathological analysis; assay type: functional, organism-based; details: Mesocricetus auratus
[38] = Toxicity in golden hamster infected with Leishmania (Viannia) braziliensis HMOM/COL/88/UA301-EGFP assessed as effect on serum alanine aminotransferase level at 2.6% administered topically as cream formulation for 20 days and measured day 8 post last treatment; design: species or system Mesocricetus auratus; details: in vivo, topical_or_ocular, 480 h

MEGLUMINE ANTIMONATE
Non-Toxic: Activity [2] | Activity [5] | Activity [16]
Toxic: Activity [1] | Activity [3] | Activity [4] | Activity [6] | Activity [7] | Activity [8] | Activity [9] | Activity [10] | Activity [11] | Activity [12] | Activity [13] | Activity [14] | Activity [15] | Activity [17]

C[C@]12C=C[C@@]3(CC[C@@H]4[C@@](C)(CO)CCC[C@@]4(C)[C@@H]3CC1)C2
7.7: selectivity ratio [33]
33.3%: Activity [36]
50%: Activity [28]
0%: Activity [34]
Non-Toxic: Activity [25] | Activity [26] | Activity [32] | Activity [38]
4.74: pEC50 [18]
122 µM: CC50 at 72 h [27]
Toxic: Activity [20] | Activity [22] | Activity [24] | Activity [29] | Activity [30] | Activity [31]
16.7%: Activity [35]
active: Activity [19] | Activity [21] | Activity [23] | Activity [37]
